According to patent US20250297220A1, “IMMUNE-ACTIVATING COMPLEXES” (Dynamic Cell Therapies, Inc., priority 2022, published 2025):

What was measured:
[1] = tested on: engineered cytokine receptor switches (fluorescein-binding receptor domains, IL-7 receptor-a intracellular signaling domains); assay: T-cell activation, transduction, expansion and differentiation; memory phenotype quantification; assay type: cell-based; conditions: after 5 days in multi-well plates; non-fluorescein contacted cells about 30%
Source text: This example covers activation, differentiation, and expansion of immune cells with engineered cytokine receptor switches. The engineered cytokine receptor switches included fluorescein-binding receptor domains and IL-7 receptor-a intracellular signaling domains. The cells were activated with CD3 and CD28 antibody-coated beads, followed by small molecule activators for the engineered cytokine switches to promote differentiation to memory phenotypes. The proportion of stem-cell memory, central memory, and effector memory cells were measured following differentiation.
Activation, transfection, expansion, and differentiation were performed according to the timeline in FIG. 28A. The cells were maintained in media with 20 units/ml IL2 throughout the incubation. The cells were first contacted with CD3/CD28 activating beads at a ratio of 1:1 (cells to beads). Following three days of activation and expansion, the cells were transfected with a gamma retroviral vector encoding the engineered cytokine receptor switch with fluorescein binding affinity and mCherry for fluorescence detection. The cells were then transferred to a multi-well plate. […]
Following 5 total days of incubation in the multi-well plates, the cells were analyzed for (1) stem-cell memory, (2) central memory, (3) effector memory, and (4) terminally differentiated effector memory re-expressing CD45RA phenotype. […]

[2] = Molar absorptivities at 280 nm and 493 nm; assay type: physicochemical
Procedure: UV-vis absorption profiles were obtained for compound 7-functionalized antibodies, unfunctionalized antibodies, and free compound 7. FIG. 47 provides the results of these analyses. Molar absorptivities (8) were determined for the anti-BCMA antibody at 280 nm (primarily corresponding tyrosine and tryptophan absorbances from the anti-BCMA antibody) and at 493 nm for maleimide fluorescein and 5 (6)-carboxy fluorescein (primarily corresponding to the HOMO to LUMO transition within the fluorescein x-system), and are summarized in Table 18. As the unfunctionalized antibody minimally absorbed around 493 nm, absorbance in this region is quantitative for fluorescein concentration.

ε280 nm ([2]; molar absorptivity at 280 nm) [M⁻¹ cm⁻¹] | ε493nm ([2]; molar absorptivity at 493 nm) [M⁻¹ cm⁻¹] | SMILES | proportion of central memory cells [1]
– | – | O=C1OC2(c3ccc(O)cc3Oc3cc(O)ccc32)c2ccccc21 [fluorescein] | about 50%
7968 | 43908 | O=C1OC2(c3ccc(O)cc3Oc3cc(O)ccc32)c2ccc(N3C(=O)C=CC3=O)cc21 [Fluorescein-Maleimide] | –
